Structures are written as SMILES.

Consider one molecule from US20200054646A1, “USE OF PHENOTHIAZINE DERIVATIVE IN THE TREATMENT OF INFECTIOUS PURPURA OR PURPURA FULMINANS” (priority 2016, published 2020).

The subject of this experiment is HBMECs infected with meningococci. Nature of the experiment: PECAM-1 recruitment at bacterial adhesion sites in infected HBMEC. The format is cell-based, human. To be noted: 5 μM, 2 h infection. The method, then: (A) Monolayers of HBMECs were non-infected or infected for 2 h with meningococci and the effect on the localisation of the endothelial cell junction proteins PECAM-1 and […]-catenin was analysed by immunofluorescence analysis. Arrows point at PECAM-1 molecules recruited at bacterial adhesion sites (B) HBMECs were infected for 2 h with meningococci in the presence or in the absence of 5 μM Trifluoperazine and the effect on junctional PECAM-1 and on the endothelial cell cytoskeleton remodelling (Ezrin, Actin) was analysed by immunofluorescence analysis. (C) Quantification of Actin and PECAM-1 recruitment at sites of bacterial adhesion was performed using Image J software.
HDMECs were grown in their specific culture medium (Promocell #C-12210) and confluent monolayers were infected with 2C4.3. Briefly, bacteria were precultured in prewarmed cell culture medium for 1 h 30 min at 37° C. 5% CO2. The OD600 was adjusted to 0.1 and HDMECs were then overlaid with bacteria for 30 min (MOI of 100). Unbound bacteria were removed by three washes in cell culture media and infection was allowed to proceed for 1 h at 37° C. 5% CO2. Gentamicin was added at 150 μg/ml for 1 h, then after three washes in cell culture media, Trifluoperazine was applied where mentioned at 50 μM for 20 min. […] Quantifications were done using ImageJ software (NIH).

In the case of `CN1CCN(CCCN2c3ccccc3Sc3ccc(C(F)(F)F)cc32)CC1` [Trifluoperazine], the “PECAM-1 recruitment at bacterial adhesion sites” value is on record as “prevented PECAM-1 recruitment” and the bacterial colonization entry is listed as “did not affect”.
